# Tests used:
# Format in all cases: cell-based
# tumor cell lines = test: Cytotoxicity assay, comparison across the cell lines listed in Table 18; details: across a wide range of tumor cell lines
# Description: (§1) Cells of the cell lines listed in Table 18 (1×10^5) were plated into 6-well dishes. Twenty-four hours later, the compound of Example 1, i.e., (Z)-ethyl 3-((2-methoxy-5-(((E)-2,4,6-trimethoxystyrylsulfonyl)methyl) phenyl)amino)acrylate, or the compound of Comparative Example 1, i.e., sodium (E)-2-(5-((2,4,6-trimethoxystyrylsulfonyl)methyl)-2-methoxyphenylamino) acetate (rigosertib) was added at different concentrations over a 4 log dilution (0.001 to 10 μM). The total number of viable cells was determined after 96 hours of continuous treatment by staining with trypan blue and counting the number of non-staining cells (viable) remaining in each well using a hemacytometer. The percentage of viable cells remaining was calculated as follows: # viable cells (compound treated)/# viable cells (DMSO treated)*100. The GI50 (the concentration of drug resulting in 50% net loss of growth inhibition) was determined.
# A549 = test: Cytotoxicity assay (viable cell count, trypan blue), A549; details: A549, Non-Small Cell Lung Carcinoma; 96 hours continuous treatment
# Description: as §1
# Z1385 = test: Cytotoxicity assay (viable cell count, trypan blue), Z1385; details: Z1385, Mantle Cell Lymphoma; 96 hours continuous treatment
# Description: as §1
# 5367 = test: Cytotoxicity assay (viable cell count, trypan blue), 5367; details: 5367, Bladder; 96 hours continuous treatment
# Description: as §1
# WM1617 = test: Cytotoxicity assay (viable cell count, trypan blue), WM1617; details: WM1617, Melanoma; 96 hours continuous treatment
# Description: as §1
# MIA-PaCa-2 = test: Cytotoxicity assay (viable cell count, trypan blue), MIA-PaCa-2; details: MIA-PaCa-2, Pancreatic; 96 hours continuous treatment
# Description: as §1
# H1299 = test: Cytotoxicity assay (viable cell count, trypan blue), H1299; details: H1299, Non-Small Cell Lung Carcinoma; 96 hours continuous treatment
# Description: as §1
# UM-UC-3 = test: Cytotoxicity assay (viable cell count, trypan blue), UM-UC-3; details: UM-UC-3, Bladder; 96 hours continuous treatment
# Description: as §1
# PC-3 = test: Cytotoxicity assay (viable cell count, trypan blue), PC-3; details: PC-3, Prostate; 96 hours continuous treatment
# Description: as §1
# K562 = test: Cytotoxicity assay (viable cell count, trypan blue), K562; details: K562, Chronic Myelogenous Leukemia; 96 hours continuous treatment
# Description: as §1
# CEM = test: Cytotoxicity assay (viable cell count, trypan blue), CEM; details: T-Cell Lymphoma, 96 hours continuous treatment
# Description: as §1
# MOLT-4 = test: Cytotoxicity assay (viable cell count, trypan blue), MOLT-4; details: MOLT-4, T-Cell Lymphoma; 96 hours continuous treatment
# Description: as §1
# GRANTA-519 = test: Cytotoxicity assay (viable cell count, trypan blue), GRANTA-519; details: GRANTA-519, Mantle Cell Lymphoma; 96 hours continuous treatment
# Description: as §1
# Caov-3 = test: Cytotoxicity assay (viable cell count, trypan blue), Caov-3; details: Caov-3, Ovarian; 96 hours continuous treatment
# Description: as §1
# T-24 = test: Cytotoxicity assay (viable cell count, trypan blue), T-24; details: T-24, Bladder; 96 hours continuous treatment
# Description: as §1
# MDA-MB-231 = test: Cytotoxicity assay (viable cell count, trypan blue), MDA-MB-231; details: MDA-MB-231, Breast; 96 hours continuous treatment
# Description: as §1
# DAUDI = test: Cytotoxicity assay (viable cell count, trypan blue), DAUDI; details: B-Cell Lymphoma, 96 hours continuous treatment
# Description: as §1
# RS4; 11 = test: Cytotoxicity assay (viable cell count, trypan blue), RS4; 11; details: 11, ALL-B-Cell Precursor, 96 hours continuous treatment
# Description: as §1
# N417 = test: Cytotoxicity assay (viable cell count, trypan blue), N417; details: N417, Small Cell Lung Carcinoma; 96 hours continuous treatment
# Description: as §1
# 2008 = test: Cytotoxicity assay (viable cell count, trypan blue), 2008; details: 2008, Ovarian; 96 hours continuous treatment
# Description: as §1
# DU145 = test: Cytotoxicity assay (viable cell count, trypan blue), DU145; details: DU145, Prostate; 96 hours continuous treatment
# Description: as §1
# HT-29 = test: Cytotoxicity assay (viable cell count, trypan blue), HT-29; details: HT-29, Colo-Rectal; 96 hours continuous treatment
# Description: as §1
# HCT-15 = test: Cytotoxicity assay (viable cell count, trypan blue), HCT-15; details: HCT-15, Colo-Rectal; 96 hours continuous treatment
# Description: as §1
# HCT-116 = test: Cytotoxicity assay (viable cell count, trypan blue), HCT-116; details: HCT-116, Colo-Rectal; 96 hours continuous treatment
# Description: as §1
# DU145 (prostate cancer) = test: Cytotoxicity assay, DU145 tumor cells; details: Homo sapiens, DU-145, 96 hours treatment
# Description: (§2) The effect of the compounds of the invention on tumor cells was determined by the assay described by Latham et al., Oncogene 12:827-837 (1996). Tumor cells K562 (chronic myelogenous leukaemia) or DU145 (prostate cancer) were plated in 12-well dishes at a cell density of 2.5×10^4 cells well. The plated cells were treated 24 hours later with a compound of the invention dissolved in DMSO at multiple concentrations ranging from 0.001 to 10 μM. The plates were examined 96 hours later under an inverted microscope, Olympus CK-2 using a 10× objective, and compound activity was noted by physical observation. When necessary, the total number of viable cells was determined by trypsinizing the wells and counting the number of viable cells, as determined by trypan blue exclusion, using a hemacytometer.
# [1] = system: K562 (chronic myelogenous leukaemia); test: Cytotoxicity assay, K562 tumor cells; details: Homo sapiens, 96 hours treatment
# Description: as §2
structure (smiles),measurement,setting,value
"CCOC(=O)/C=C\Nc1cc(CS(=O)(=O)/C=C/c2c(OC)cc(OC)cc2OC)ccc1OC [(Z)-ethyl 3-((2-methoxy-5-(((E)-2,4,6-trimethoxystyrylsulfonyl)methyl)phenyl)amino)acrylate]",fold more cytotoxic than Rigosertib,tumor cell lines,10-100 fold
"COc1cc(OC)c(/C=C/S(=O)(=O)Cc2ccc(OC)c(NCC(=O)O)c2)c(OC)c1 [Comparative Example 1, Sodium (E)-2-(5-((2,4,6-trimethoxystyrylsulfonyl)methyl)-2-methoxyphenylamino) acetate, reference compound]",GI50,A549,75 nM
same,GI50,Z1385,40 nM
same,GI50,5367,100 nM
same,GI50,WM1617,300 nM
same,GI50,MIA-PaCa-2,150 nM
same,GI50,H1299,200 nM
same,GI50,UM-UC-3,50 nM
same,GI50,PC-3,75 nM
same,GI50,K562,120 nM
same,GI50,CEM,40 nM
same,GI50,MOLT-4,40 nM
same,GI50,GRANTA-519,40 nM
same,GI50,Caov-3,150 nM
same,GI50,T-24,70 nM
same,GI50,MDA-MB-231,90 nM
same,GI50,DAUDI,75 nM
same,GI50,RS4; 11,75 nM
same,GI50,N417,100 nM
same,GI50,2008,100 nM
same,GI50,DU145,150 nM
same,GI50,HT-29,250 nM
same,GI50,HCT-15,200 nM
same,GI50,HCT-116,100 nM
"COc1cc(OC)c(/C=C/S(=O)(=O)Cc2ccc(OC)c(N/C=C\C(C)=O)c2)c(OC)c1 [Ex. 2, (Z)-4-((2-Methoxy-5-(((E)-2,4,6-trimethoxystyrylsulfonyl)methyl)phenyl)amino)but-3-en-2-one]",IC50,DU145 (prostate cancer),0.1 µM
same,IC50,[1],0.1 µM
"COC(=O)/C=C\Nc1cc(CS(=O)(=O)/C=C/c2c(OC)cc(OC)cc2OC)ccc1OC [Ex. 3, (Z)-methyl 3-((2-methoxy-5-(((E)-2,4,6-trimethoxystyrylsulfonyl)methyl)phenyl)amino) acrylate]",IC50,DU145 (prostate cancer),0.004 µM
same,IC50,[1],0.004 µM
"COc1ccc(C(=O)/C=C\Nc2cc(CS(=O)(=O)/C=C/c3c(OC)cc(OC)cc3OC)ccc2OC)cc1 [Ex. 4, (Z)-1-(4-methoxyphenyl)-3-((2-methoxy-5-(((E)-2,4,6-trimethoxystyrylsulfonyl)methyl)phenyl)amino)prop-2-en-1-one]",IC50,DU145 (prostate cancer),0.05 µM
same,IC50,[1],0.05 µM
"COc1cc(OC)c(/C=C/S(=O)(=O)Cc2ccc(OC)c(N/C=C\C(=O)c3cc(OC)c(OC)c(OC)c3)c2)c(OC)c1 [Ex. 5, (Z)-1-(3,4,5-trimethoxyphenyl)-3-((2-methoxy-5-(((E)-2,4,6-trimethoxystyrylsulfonyl)methyl)phenyl)amino) prop-2-en-1-one]",IC50,DU145 (prostate cancer),0.009 µM
"COc1cc(OC)c(/C=C/S(=O)(=O)Cc2ccc(OC)c(N/C=C\C(=O)c3cc(OC)c(OC)c(OC)c3Cl)c2)c(OC)c1 [Ex. 7, (Z)-1-(2-chloro-3,4,5-trimethoxyphenyl)-3-((2-methoxy-5-(((E)-2,4,6-trimethoxystyrylsulfonyl)methyl)phenyl)amino)prop-2-en-1-one]",IC50,DU145 (prostate cancer),0.05 µM
same,IC50,[1],0.05 µM
"COc1cc(OC)c(/C=C/S(=O)(=O)Cc2ccc(OC)c(N/C=C\C(=O)c3cc(OC)c(OC)c(OC)c3Br)c2)c(OC)c1 [Ex. 8, (Z)-1-(2-bromo-3,4,5-trimethoxyphenyl)-3-((2-methoxy-5-(((E)-2,4,6-trimethoxystyrylsulfonyl)methyl)phenyl)amino)prop-2-en-1-one]",IC50,DU145 (prostate cancer),0.075 µM
same,IC50,[1],0.075 µM
"C#CCN(CC#C)c1cc(CS(=O)(=O)/C=C/c2c(OC)cc(OC)cc2OC)ccc1OC [Ex. 161, (E)-2-methoxy-N,N-di(prop-2-yn-1-yl)-5-(((2,4,6-trimethoxystyryl)sulfonyl)-methyl)aniline]",IC50,DU145 (prostate cancer),2.5 µM
same,IC50,[1],2.5 µM
"COc1cc(OC)c(/C=C/S(=O)(=O)Cc2ccc(OC)c(NC(=O)/C=C\C(=O)O)c2)c(OC)c1 [Ex. 171, (Z)-4-((2-methoxy-5-(((E)-2,4,6-trimethoxystyrylsulfonyl)methyl)phenyl)amino)-4-oxobut-2-enoic acid]",IC50,DU145 (prostate cancer),2 µM
same,IC50,[1],2 µM
"COC(=O)/C=C\C(=O)Nc1cc(CS(=O)(=O)/C=C/c2c(OC)cc(OC)cc2OC)ccc1OC [Ex. 176, (Z)-methyl 4-((2-methoxy-5-(((E)-2,4,6-trimethoxystyrylsulfonyl)methyl)phenyl)amino)-4-oxobut-2-enoate]",IC50,DU145 (prostate cancer),2 µM
same,IC50,[1],0.25 µM
"CCOC(=O)/C=C/CNc1cc(CS(=O)(=O)/C=C/c2c(OC)cc(OC)cc2OC)ccc1OC [Ex. 181, (E)-Ethyl 4-((2-methoxy-5-(((E)-2,4,6-trimethoxystyrylsulfonyl)methyl)phenyl)amino)but-2-enoate]",IC50,DU145 (prostate cancer),0.25 µM
same,IC50,[1],0.25 µM
"COc1cc(OC)c(/C=C/S(=O)(=O)Cc2ccc(OC)c(NC(=O)/C=C/C(=O)O)c2)c(OC)c1 [Ex. 186, (E)-4-((2-methoxy-5-(((E)-2,4,6-trimethoxystyrylsulfonyl)methyl)phenyl)amino)-4-oxobut-2-enoic acid]",IC50,DU145 (prostate cancer),2 µM
same,IC50,[1],2 µM
"CCOC(=O)C(=CNc1cc(CS(=O)(=O)/C=C/c2c(OC)cc(OC)cc2OC)ccc1OC)C(=O)OCC [Ex. 191, (E)-diethyl-2-(((2-methoxy-5-(((2,4,6-trimethoxystyryl)sulfonyl)methyl)phenyl)-amino)methylene)malonate]",IC50,DU145 (prostate cancer),2 µM
same,IC50,[1],2 µM
"C=CC(=O)Nc1cc(CS(=O)(=O)/C=C/c2c(OC)cc(OC)cc2OC)ccc1OC [Ex. 201, (E)-N-(2-methoxy-5-(((2,4,6-trimethoxystyryl)sulfonyl)methyl)phenyl)acrylamide]",IC50,DU145 (prostate cancer),0.75 µM
same,IC50,[1],0.75 µM
